Reference: patent publication US9138439B2, “Methods and compositions for modulating P300/CBP activity” (The Wistar Institute, priority 2007, dated 2015)
Positions count from the first letter of the chain named. Non-standard residues stand in square brackets, D forms with d. No end group written: not given here. Cit = NC(=O)NCCC[C@H](N)C(=O)O

Assays:
[1] = target: T1, D1625R/D1628R p300 HAT (Homo sapiens, UniProt Q09472, D1625R/D1628R/DEL1523-1554/M1652G); assay: HAT assay, steady state kinetic parameters of H4 tail peptide analog substrates, D1625R/D1628R p300 HAT mutant; format: biochemical; details: for V/K(M^−1s^−1) for D1625R/D1628R: peptide as substrate of D1625R/D1628R p300 HAT mutant; for V/K difference between wild-type p300 HAT protein and the D1625R/D1628R mutant: ratio wild-type versus mutant for the given substrate
T1 construct: linking the natural N- and C-termini (residues 1287 and 1666) of the HAT domain; made in house
T1 sequence (Q09472 with tags, fused parts or gaps DEL1523-1554/D1625R/D1628R/M1652G): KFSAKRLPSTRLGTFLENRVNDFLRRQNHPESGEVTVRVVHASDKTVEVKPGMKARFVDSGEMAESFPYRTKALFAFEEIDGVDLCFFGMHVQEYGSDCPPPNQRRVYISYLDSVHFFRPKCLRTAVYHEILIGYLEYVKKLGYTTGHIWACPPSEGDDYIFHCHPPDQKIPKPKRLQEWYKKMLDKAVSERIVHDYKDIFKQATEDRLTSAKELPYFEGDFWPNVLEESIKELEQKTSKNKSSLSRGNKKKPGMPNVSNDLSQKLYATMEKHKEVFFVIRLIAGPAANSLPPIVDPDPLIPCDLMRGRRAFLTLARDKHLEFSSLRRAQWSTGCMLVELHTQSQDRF
Method: (§1) HAT Assays. HAT activity was determined by either a rapid and nonradioactive HAT assay that measures the production of CoASH by its facile reaction with DTNB, or by a radioactive assay (Lau, et al. (2000) supra; Thompson, et al. (2000) supra). […] For the radioactive assay, the concentration of [^14C]acetyl-CoA was fixed at 20 μM when measuring the steady-state kinetic parameters for peptide substrates.
(§2) To test the influence of electrostatic interactions on substrate sequence selection, the steady state kinetic parameters for several synthetic H4 tail peptide analogs was determined (listed in Table 5). In H4-15, there are two other basic residues (Lys5 and Lys12) near the target Lys8. It has previously been shown that either one of the nearby Lys (or Arg replacements) is sufficient to permit efficient acetylation by full-length p300 (Thompson, et al. (2001) supra). Here, the effects of replacing Lys5 and Lys12 with Ala, the neutral residue hydrogen bonding citrulline, or Asp were compared for wild-type and mutant p300 HAT as indicated in Table 5. Analysis of the single lysine substrate, analogous to the Lys-CoA component, which contains both amino and carboxyl groups derivatized as amides (Table 5), was also conducted. Km of these substrates were generally too high to be measured (>1000 μM) under the experimental conditions, highlighting the important role of the nearby positively charged residues for substrate interaction. As shown Table 5, the 22-fold V/K difference between wild-type p300 HAT protein and the D1625R/D1628R mutant for H4-15 substrate dropped to 6-fold when using Ac-Lys-NH2 as substrate. […] Consistent with this idea, H4-12^K5A/K12A or H4-12^K5Cit/K12A which lack proximal basic residues but contain neutral hydrogen bonding residues show kinetic behavior similar to that of Ac-Lys-NH2 (Table 5).

[2] = target: T2, wild-type p300 HAT (Homo sapiens, UniProt Q09472, DEL1523-1554/M1652G); assay: HAT assay, steady state kinetic parameters of H4 tail peptide analog substrates, wild-type p300 HAT; format: biochemical; details: peptide as substrate of wild-type p300 HAT
T2 construct: linking the natural N- and C-termini (residues 1287 and 1666) of the HAT domain; made in house
T2 sequence (Q09472 with tags, fused parts or gaps DEL1523-1554/M1652G): T1 sequence (Q09472 with tags, fused parts or gaps DEL1523-1554/D1625R/D1628R/M1652G) with R307D, R310D
Method: as §1, §2

[3] = tested on: p300/CBP HAT; assay: coupled spectrophotometric assay that measures CoASH production in real-time; format: biochemical, human; details: inhibitor concentration not given
Excerpt: (§3) In accordance with the methods of the present invention, compounds were screened to identify modulators of p300/CBP HAT activity.

[4] = tested on: p300/CBP HAT; assay: direct radioactive assay measuring 14C-incorporation from acetyl-CoA into H4 tail peptide; format: biochemical, human; details: inhibitor concentration not given
Method: as §3, §1

[5] = tested on: AANAT; assay: specificity test against other acetyltransferases: AANAT; format: biochemical
Excerpt: (§4) The three small molecule p300 HAT inhibitors (7, 17.2 and 17.3) identified using virtual library screening provided new leads for further development. […] From the docking model of 7 to p300 HAT (FIG. 11), important hydrogen bonding roles are indicated for the side-chains of Arg1410, Thr1411, Trp1466 (all interacting with the inhibitor carboxylate) as well as the side-chain of Tyr1467 (hydrogen bonding to the nitro group). While Arg1410 and Tyr1467 are critical for CoA binding and/or catalysis, mutation of Trp1466 is well-tolerated. To explore the specificity of the small molecule HAT inhibitors, these compounds are tested against other acetyltransferases (PCAF, AANAT, RTT109, EsaI), which assists in the prioritization of candidates for pharmacologic applications.

[6] = target: PCAF (Homo sapiens, UniProt Q92831); assay: specificity test against other acetyltransferases: PCAF; format: biochemical
Excerpt: as §4

[7] = target: p300/CBP (Homo sapiens, UniProt Q09472); details: Lau, et al. (2000); cited from earlier work
p300/CBP, sequence (Q09472 whole entry): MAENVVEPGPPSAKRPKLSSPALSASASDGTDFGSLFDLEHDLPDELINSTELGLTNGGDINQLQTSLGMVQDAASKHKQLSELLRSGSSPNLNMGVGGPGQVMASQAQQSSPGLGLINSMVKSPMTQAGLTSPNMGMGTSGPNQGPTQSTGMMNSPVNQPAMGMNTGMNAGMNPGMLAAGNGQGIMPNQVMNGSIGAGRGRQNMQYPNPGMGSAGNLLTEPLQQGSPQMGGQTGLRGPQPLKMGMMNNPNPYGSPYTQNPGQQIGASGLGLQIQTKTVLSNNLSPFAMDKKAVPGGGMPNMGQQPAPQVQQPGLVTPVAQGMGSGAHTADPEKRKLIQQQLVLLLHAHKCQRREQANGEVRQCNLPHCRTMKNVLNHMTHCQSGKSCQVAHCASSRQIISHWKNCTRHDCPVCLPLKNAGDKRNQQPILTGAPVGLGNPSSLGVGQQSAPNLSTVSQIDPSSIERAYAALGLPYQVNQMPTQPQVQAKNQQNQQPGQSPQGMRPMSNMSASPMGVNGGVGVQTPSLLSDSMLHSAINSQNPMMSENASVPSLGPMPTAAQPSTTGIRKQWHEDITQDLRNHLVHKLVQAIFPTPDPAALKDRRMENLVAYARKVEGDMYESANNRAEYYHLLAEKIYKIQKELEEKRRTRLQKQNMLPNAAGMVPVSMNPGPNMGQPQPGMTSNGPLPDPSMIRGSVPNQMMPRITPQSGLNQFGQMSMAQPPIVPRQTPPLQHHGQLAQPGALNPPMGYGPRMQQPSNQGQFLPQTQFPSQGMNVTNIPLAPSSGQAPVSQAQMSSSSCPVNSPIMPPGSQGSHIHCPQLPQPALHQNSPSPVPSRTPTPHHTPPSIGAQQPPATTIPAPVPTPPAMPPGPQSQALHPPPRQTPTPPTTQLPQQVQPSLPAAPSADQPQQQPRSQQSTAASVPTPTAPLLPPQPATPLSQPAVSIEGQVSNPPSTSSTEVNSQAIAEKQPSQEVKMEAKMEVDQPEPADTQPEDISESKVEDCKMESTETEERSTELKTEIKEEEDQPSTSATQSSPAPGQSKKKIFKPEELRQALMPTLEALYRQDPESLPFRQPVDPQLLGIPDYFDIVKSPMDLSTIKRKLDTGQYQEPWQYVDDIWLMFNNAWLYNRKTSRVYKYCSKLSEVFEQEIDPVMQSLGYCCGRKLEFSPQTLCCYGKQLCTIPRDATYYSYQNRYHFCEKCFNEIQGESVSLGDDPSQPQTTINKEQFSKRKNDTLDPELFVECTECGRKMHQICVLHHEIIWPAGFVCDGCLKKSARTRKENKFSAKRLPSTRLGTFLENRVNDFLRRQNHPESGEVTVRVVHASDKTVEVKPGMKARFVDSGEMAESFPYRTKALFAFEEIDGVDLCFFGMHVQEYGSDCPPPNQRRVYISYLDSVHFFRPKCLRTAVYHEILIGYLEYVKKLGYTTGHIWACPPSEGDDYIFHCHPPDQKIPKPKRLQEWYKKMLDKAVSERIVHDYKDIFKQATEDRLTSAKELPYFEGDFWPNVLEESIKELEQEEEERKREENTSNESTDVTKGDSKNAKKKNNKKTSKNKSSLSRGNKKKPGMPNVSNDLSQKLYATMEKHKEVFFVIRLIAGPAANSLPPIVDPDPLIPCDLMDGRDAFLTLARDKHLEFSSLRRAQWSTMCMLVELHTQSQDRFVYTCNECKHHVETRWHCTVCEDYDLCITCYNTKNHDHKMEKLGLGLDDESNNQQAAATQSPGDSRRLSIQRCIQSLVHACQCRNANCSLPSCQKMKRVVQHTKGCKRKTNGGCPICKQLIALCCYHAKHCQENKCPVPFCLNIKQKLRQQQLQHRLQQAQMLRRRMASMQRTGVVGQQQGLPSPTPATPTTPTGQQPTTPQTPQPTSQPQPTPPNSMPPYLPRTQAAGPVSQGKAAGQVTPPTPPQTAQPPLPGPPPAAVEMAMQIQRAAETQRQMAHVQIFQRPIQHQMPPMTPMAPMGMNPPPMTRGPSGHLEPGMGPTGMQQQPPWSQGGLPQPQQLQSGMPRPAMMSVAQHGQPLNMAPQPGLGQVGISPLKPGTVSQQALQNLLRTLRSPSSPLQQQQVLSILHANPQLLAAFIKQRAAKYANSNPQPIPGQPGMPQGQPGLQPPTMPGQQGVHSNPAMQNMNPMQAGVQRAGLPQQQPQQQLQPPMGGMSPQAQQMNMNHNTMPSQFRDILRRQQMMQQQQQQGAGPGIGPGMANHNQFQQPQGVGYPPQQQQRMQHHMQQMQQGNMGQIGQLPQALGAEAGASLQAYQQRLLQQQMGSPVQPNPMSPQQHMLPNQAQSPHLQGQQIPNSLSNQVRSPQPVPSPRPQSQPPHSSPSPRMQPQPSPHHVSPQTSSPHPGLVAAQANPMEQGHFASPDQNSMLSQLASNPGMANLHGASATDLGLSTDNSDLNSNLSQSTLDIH

PCAF, sequence (Q92831 whole entry, species assumed): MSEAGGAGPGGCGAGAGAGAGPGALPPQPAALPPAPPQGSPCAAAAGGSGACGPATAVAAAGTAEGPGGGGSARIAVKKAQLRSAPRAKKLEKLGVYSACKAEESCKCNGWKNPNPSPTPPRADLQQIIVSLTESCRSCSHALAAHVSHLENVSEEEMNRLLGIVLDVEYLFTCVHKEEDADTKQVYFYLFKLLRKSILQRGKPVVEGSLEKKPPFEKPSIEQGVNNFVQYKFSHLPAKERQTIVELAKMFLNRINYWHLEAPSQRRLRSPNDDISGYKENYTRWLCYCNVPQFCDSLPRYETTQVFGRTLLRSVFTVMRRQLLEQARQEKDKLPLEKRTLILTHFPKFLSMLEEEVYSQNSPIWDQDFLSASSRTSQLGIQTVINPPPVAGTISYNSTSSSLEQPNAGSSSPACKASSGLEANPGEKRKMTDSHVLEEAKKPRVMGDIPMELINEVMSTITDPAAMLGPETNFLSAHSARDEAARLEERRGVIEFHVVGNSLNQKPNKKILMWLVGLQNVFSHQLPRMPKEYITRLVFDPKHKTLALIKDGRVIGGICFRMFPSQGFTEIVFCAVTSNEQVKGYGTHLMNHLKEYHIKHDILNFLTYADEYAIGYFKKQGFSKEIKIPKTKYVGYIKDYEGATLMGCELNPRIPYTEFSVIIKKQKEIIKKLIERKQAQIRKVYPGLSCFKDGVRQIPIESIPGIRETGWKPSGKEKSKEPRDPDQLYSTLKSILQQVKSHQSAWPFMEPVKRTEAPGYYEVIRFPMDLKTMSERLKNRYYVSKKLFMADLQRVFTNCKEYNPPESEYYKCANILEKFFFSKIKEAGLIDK

Row | Molecule | % Inhibition Coupled [3] [%] | melting point [°C] | % Inhibition Direct [4] [%] | also measured
1 | CC(=O)NC(CCCCN)C(N)=O (stereo not drawn) [Ac-Lys-NH2, CH3CO—NH-Lys-CONH2] |  |  |  | V/K(M^−1s^−1) for D1625R/D1628R [1]: 326 ± 10 M⁻¹ s⁻¹; V/K difference between wild-type p300 HAT protein and the D1625R/D1628R mutant [1]: 6 fold; V/K(M^−1s^−1) for W.T. [2]: 1843 ± 50 M⁻¹ s⁻¹
2 | CC1=NN(c2ccc(C(=O)O)cc2)C(=O)C1 [CM-26] | 16.3 |  |  | 
3 | CC1=NN(c2ccc(C(=O)O)cc2)C(=O)/C1=C\c1ccc(-c2ccccc2)o1 [Compound 6a] | 33.7 | 306 to 309 | 71.5 | 
4 | CC1=NN(c2ccc(C(=O)O)cc2)C(=O)/C1=C\c1ccc(-c2ccc([N+](=O)[O-])cc2)o1 [Compound 6b] | 35.6 | 338 to 341 | 33.8 | 
5 | CCOC(=O)c1ccccc1-c1ccc(/C=C2\C(=O)N(c3ccc(C(=O)O)cc3)N=C2C)o1 [Compound 6c] | 38.1 | 249 to 251 | 8.3 | 
6 | CCOC(=O)c1ccc(N2N=C(C)/C(=C/c3ccc(-c4cc(C)c(C)cc4[N+](=O)[O-])o3)C2=O)cc1 [Compound 6d] | 0 | 192 to 194 |  | 
7 | CC1=NN(c2cccc(C(=O)O)c2)C(=O)/C1=C\c1ccc(-c2cc(C)c(C)cc2[N+](=O)[O-])o1 [Compound 6e] | 63.4 | 260 to 262 | 96.4 | 
8 | CC1=NN(c2ccc(S(=O)(=O)O)cc2)C(=O)/C1=C\c1ccc(-c2cc(C)c(C)cc2[N+](=O)[O-])o1 [Compound 6f] | 57.4 | 210 to 213 | 97.2 | 
9 | CC1=NN(c2ccc(C(N)=O)cc2)C(=O)/C1=C\c1ccc(-c2cc(C)c(C)cc2[N+](=O)[O-])o1 [Compound 6h] | 40.6 | 273 to 275 | 94.7 | 
10 | CC1=NN(c2ccc(Cl)cc2)C(=O)/C1=C\c1ccc(-c2cc(C)c(C)cc2[N+](=O)[O-])o1 [Compound 6i] | 13.9 | 220 to 223 |  | 
11 | CC1=NN(c2ccc(C(=O)O)cc2)C(=O)/C1=C\c1ccc(-c2cc(C)c(C)cc2[N+](=O)[O-])o1 [Compound 7] | 85.9 |  |  | % inhibition of AANAT [5]: 4.8%; % inhibition of PCAF [6]: 0%
12 | CC1=NN(CCCCC(=O)O)C(=O)/C1=C\c1ccc(-c2cc(C)c(C)cc2[N+](=O)[O-])o1 [Compound 9] | 92.6 |  | 55.8 | 
13 | CC1=NN(c2ccc(C(=O)O)cc2)C(=O)/C1=C\c1ccc(-c2cc(C)ccc2[N+](=O)[O-])o1 [Compound 40174] |  |  | 79.5 | 
14 | CC1=NN(c2ccc(C(=O)O)cc2)C(=O)/C1=C\c1ccc(-c2ccccc2F)o1 [Compound 6328730] | 90.5 |  | 67.9 | 
15 | CC(=O)N[C@@H](CCCCNC(=O)CSCCNC(=O)CCNC(=O)[C@H](O)C(C)(C)COP(=O)(O)OP(=O)(O)OC[C@H]1O[C@@H](n2cnc3c(N)ncnc32)[C@H](O)[C@@H]1OP(=O)(O)O)C(N)=O [Lys-CoA] |  |  |  | inhibition of p300/CBP [7]: powerful and selective inhibitor
16 | GRGDGGKGLGDGGAK [H4-15(K5D/K12D)] |  |  |  | V/K(M^−1s^−1) for D1625R/D1628R [1]: 422 ± 20 M⁻¹ s⁻¹; V/K difference between wild-type p300 HAT protein and the D1625R/D1628R mutant [1]: ≤ 2 fold; V/K(M^−1s^−1) for W.T. [2]: 636 ± 0 M⁻¹ s⁻¹
17 | GRGKGGKGLGKGGAK (Ac-GRGKGGKGLGKGGAK) [Compound H4-15] |  |  |  | V/K(M^−1s^−1) for D1625R/D1628R [1]: 1162 ± 60 M⁻¹ s⁻¹; V/K difference between wild-type p300 HAT protein and the D1625R/D1628R mutant [1]: 22 fold; V/K(M^−1s^−1) for W.T. [2]: 25000 ± 1643 M⁻¹ s⁻¹
18 | RGAGGKGLGAGA [H4-12(K5A/K12A)] |  |  |  | V/K(M^−1s^−1) for D1625R/D1628R [1]: 515 ± 15 M⁻¹ s⁻¹; V/K(M^−1s^−1) for W.T. [2]: 3824 ± 180 M⁻¹ s⁻¹
19 | RGXGGKGLGAGA (RG[Cit]GGKGLGAGA) [H4-12(K5X/K12A)] |  |  |  | V/K(M^−1s^−1) for D1625R/D1628R [1]: 738 ± 20 M⁻¹ s⁻¹; V/K(M^−1s^−1) for W.T. [2]: 5247 ± 60 M⁻¹ s⁻¹
